Data published in patent US12122761B2, “2-azaspiro[3.4]octane derivatives as M4 agonists” (NOVARTIS AG, priority 2019, dated 2024).

Key:
[1] = biological target: T1, human cloned CHRM4 receptor (M4_CHO cells) (Homo sapiens, UniProt P08173); test: CHRM4 Ca++ Flux Assay (agonist mode, FDSS 7000EX); assay type: cell-based; settings: for M4 FDSS PA / Emax: Percent Activity; for EC50: geometric mean if tested more than once, read-out: M4 FDSS EC50; for Emax: read-out: M4 FDSS PA
T1 construct: expressed in transfected cells; host or cells: CHO-K1
T1 sequence (P08173 1-479): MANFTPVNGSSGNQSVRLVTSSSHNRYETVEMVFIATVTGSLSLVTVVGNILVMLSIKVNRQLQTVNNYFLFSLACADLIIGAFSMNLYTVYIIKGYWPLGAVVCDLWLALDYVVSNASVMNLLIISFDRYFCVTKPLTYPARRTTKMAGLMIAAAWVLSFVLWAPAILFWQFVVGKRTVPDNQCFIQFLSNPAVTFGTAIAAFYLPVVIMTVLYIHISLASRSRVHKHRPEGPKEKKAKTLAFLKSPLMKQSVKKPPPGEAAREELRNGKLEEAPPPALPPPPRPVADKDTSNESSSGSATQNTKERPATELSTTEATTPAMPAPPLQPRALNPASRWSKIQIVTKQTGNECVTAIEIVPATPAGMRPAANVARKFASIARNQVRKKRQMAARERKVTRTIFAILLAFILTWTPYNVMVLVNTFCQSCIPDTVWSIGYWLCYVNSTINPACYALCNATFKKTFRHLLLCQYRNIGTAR
How it was run: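 Agonist-mode response was expressed as percent of the Carbachol EC100 and fitted with four-parameter nonlinear regression over an 11-point triplicate dose series. Intracellular Ca++ was tracked for 3 min by fluorescent dye in CHO-K1 cells stably expressing human CHRM4. Cells were preincubated 60 min with 20 μM ATP in buffer containing 2.5 mM probenecid.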

[2] = biological target: T2, Cloned human M1 receptor (CHRM1) stably expressed in HEK293 cells (Homo sapiens, UniProt P11229); test: CHRM1 Ca++ Flux Assay (agonist mode, FDSS 7000EX); assay type: cell-based; settings: for M1 FDSS PA: Percent Activity; for EC50: geometric mean if tested more than once; for Emax: HEK293, Percent Activity, read-out: M1 FDSS PA
T2 construct: expressed in transfected cells; host or cells: HEK293
T2 sequence (P11229 1-460): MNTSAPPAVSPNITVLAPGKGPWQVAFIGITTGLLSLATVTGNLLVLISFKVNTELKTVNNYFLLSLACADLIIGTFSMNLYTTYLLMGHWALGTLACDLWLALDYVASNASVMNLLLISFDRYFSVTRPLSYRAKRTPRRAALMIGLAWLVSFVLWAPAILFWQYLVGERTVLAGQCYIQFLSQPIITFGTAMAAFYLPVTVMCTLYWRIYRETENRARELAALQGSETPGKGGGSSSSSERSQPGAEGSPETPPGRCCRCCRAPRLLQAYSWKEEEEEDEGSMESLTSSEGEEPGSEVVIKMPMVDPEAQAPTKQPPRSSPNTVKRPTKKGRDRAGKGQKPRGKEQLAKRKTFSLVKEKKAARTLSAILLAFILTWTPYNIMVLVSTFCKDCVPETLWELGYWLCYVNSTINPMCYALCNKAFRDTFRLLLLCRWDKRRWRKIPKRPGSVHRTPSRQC
How it was run: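 Compounds tested as agonists at 11 concentrations in triplicate, with calcium traces captured over 3 minutes. Cells were HEK293 with stable human CHRM1 expression, plated overnight at 25K/well and loaded with calcium dye. Responses normalized to carbachol EC100 and fitted by four-parameter nonlinear regression.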

| M4 FDSS PA [1] [%] | EC50 [1] [nM] | M1 FDSS PA [2] [%] | EC50 [2] [nM] | Emax [1] [%] | Emax [2] [%] | SMILES |
| --- | --- | --- | --- | --- | --- | --- |
| 36 | 62 | 0 | > 25000 |  |  | Cc1nnc(COc2ccccc2C2CCN([C@@H]3CCC4(C3)CN(C(=O)C3(F)CC3)C4)CC2)s1 (single isomer, unassigned) [Example 7R, (R)-(1-fluorocyclopropyl)(6-(4-(2-((5-methyl-1,3,4-thiadiazol-2-yl)methoxy)phenyl)piperidin-1-yl)-2-azaspiro[3.4]octan-2-yl)methanone or (S)-(1-fluorocyclopropyl)(6-(4-(2-((5-methyl-1,3,4-thiadiazol-2-yl)methoxy)phenyl)piperidin-1-yl)-2-azaspiro[3.4]octan-2-yl)methanone] |
| 1 | > 25000 | 0 | > 25000 |  |  | Cc1noc(C)c1COc1ccccc1C1CCN([C@@H]2CCC3(C2)CN(C(=O)C2(F)CC2)C3)CC1 (single isomer, unassigned) [Example 7U, (R)-(6-(4-(2-((3,5-dimethylisoxazol-4-yl)methoxy)phenyl)piperidin-1-yl)-2-azaspiro[3.4]octan-2-yl)(1-fluorocyclopropyl)methanone or (S)-(6-(4-(2-((3,5-dimethylisoxazol-4-yl)methoxy)phenyl)piperidin-1-yl)-2-azaspiro[3.4]octan-2-yl)(1-fluorocyclopropyl)methanone] |
|  | 51 |  | > 25000 | 43 | 0 | COc1ccccc1C1CCN([C@@H]2CCC3(C2)CN(c2ncnc(C)n2)C3)CC1 [Example 5M, (R)-6-(4-(2-methoxyphenyl)piperidin-1-yl)-2-(4-methyl-1,3,5-triazin-2-yl)-2-azaspiro[3.4]octane] |
|  | 2 |  | 105 | 64 | 64 | COc1ccccc1C1CCN([C@@H]2CCC3(C2)CN(c2cncnc2)C3)CC1 [Example 5A, (R)-6-(4-(2-methoxyphenyl)piperidin-1-yl)-2-(pyrimidin-5-yl)-2-azaspiro[3.4]octane] |
|  | > 25000 |  | 420 | 6 | 69 | Cc1ncncc1N1CC2(CC[C@@H](N3CCC(c4ccccc4OCC(C)(C)O)CC3)C2)C1 [Example 5C, (R)-2-methyl-1-(2-(1-(2-(4-methylpyrimidin-5-yl)-2-azaspiro[3.4]octan-6-yl)piperidin-4-yl)phenoxy)propan-2-ol] |
| 62 | < 0.4 | 76 | 80 |  |  | Fc1ccc(C2CCOCC2)c(C2CCN([C@@H]3CCC4(C3)CN(c3cncnc3)C4)CC2)c1 (single isomer, unassigned) [Example 10C, (R)-6-(4-(5-fluoro-2-(tetrahydro-2H-pyran-4-yl)phenyl)piperidin-1-yl)-2-(pyrimidin-5-yl)-2-azaspiro[3.4]octane or (S)-6-(4-(5-fluoro-2-(tetrahydro-2H-pyran-4-yl)phenyl)piperidin-1-yl)-2-(pyrimidin-5-yl)-2-azaspiro[3.4]octane] |
| 66 | < 0.4 | 86 | 3 |  |  | Cc1nc(COc2ccccc2C2CCN([C@@H]3CCC4(C3)CN(C(=O)C3(F)CC3)C4)CC2)no1 (single isomer, unassigned) [Example 7X, (R)-(1-fluorocyclopropyl)(6-(4-(2-((5-methyl-1,2,4-oxadiazol-3-yl)methoxy)phenyl)piperidin-1-yl)-2-azaspiro[3.4]octan-2-yl)methanone or (S)-(1-fluorocyclopropyl)(6-(4-(2-((5-methyl-1,2,4-oxadiazol-3-yl)methoxy)phenyl)piperidin-1-yl)-2-azaspiro[3.4]octan-2-yl)methanone] |
| 67 | 1 | 83 | 44 |  |  | FC(F)Oc1ccccc1C1CCN([C@@H]2CCC3(C2)CN(c2nncs2)C3)CC1 (single isomer, unassigned) [Example 10O, (R)-2-(6-(4-(2-(difluoromethoxy)phenyl)piperidin-1-yl)-2-azaspiro[3.4]octan-2-yl)-1,3,4-thiadiazole or (S)-2-(6-(4-(2-(difluoromethoxy)phenyl)piperidin-1-yl)-2-azaspiro[3.4]octan-2-yl)-1,3,4-thiadiazole] |
| 41 | 45 |  | > 25000 |  |  | Fc1cncc(N2CC3(CC[C@@H](N4CCC(c5cc(F)ccc5OC5CCOCC5)CC4)C3)C2)c1 (single isomer, unassigned) [Example 10B, (R)-6-(4-(5-fluoro-2-((tetrahydro-2H-pyran-4-yl)oxy)phenyl)piperidin-1-yl)-2-(5-fluoropyridin-3-yl)-2-azaspiro[3.4]octane or (S)-6-(4-(5-fluoro-2-((tetrahydro-2H-pyran-4-yl)oxy)phenyl)piperidin-1-yl)-2-(5-fluoropyridin-3-yl)-2-azaspiro[3.4]octane] |
|  | 21 |  | > 25000 | 54 | 0 | c1ccc(C2CCN([C@@H]3CCC4(C3)CN(c3ncncn3)C4)CC2)c(OCC2CCOCC2)c1 [Example 5Q, (R)-6-(4-(2-((tetrahydro-2H-pyran-4-yl)methoxy)phenyl)piperidin-1-yl)-2-(1,3,5-triazin-2-yl)-2-azaspiro[3.4]octane] |
